Legend:
Settings in all cases: Cavia porcellus
Ileum [1] = assay: […] activity in longitudinal smooth muscle of guinea pig ileum assessed as inhibition of acetylcholine-induced contraction at 100 mg/L; type: functional
Ileum [2] = assay: […] activity in longitudinal smooth muscle of guinea pig ileum assessed as inhibition of acetylcholine-induced contraction; type: functional, tissue-based
Ileum [3] = assay: […] activity in longitudinal smooth muscle of guinea pig ileum assessed as inhibition of acetylcholine-induced contraction at 60 mg/L; type: functional
Ileum [4] = assay: […] activity in longitudinal smooth muscle of guinea pig ileum assessed as inhibition of acetylcholine-induced contraction at 30 mg/L; type: functional

CC(C)=CC(=O)C/C(C)=C/COc1ccc(CCN(C)C(=O)/C=C/S(C)(=O)=O)cc1 [METHYLGERAMBULLONE]
inhibition at 100 µg/mL (Ileum [1]): 78.7%
Activity (Ileum [2]): Dose-dependent effect
inhibition at 60 µg/mL (Ileum [3]): 70%
inhibition at 30 µg/mL (Ileum [4]): 45.3%

From ChEMBL document CHEMBL1153162, “Total synthesis and biological evaluation of methylgerambullone” (2010)
